Source: ChEMBL document CHEMBL5512643, “Structure-based discovery of potent myosin inhibitors to guide antiparasite drug development” (Eur J Med Chem, 2024)
Values after ≈ are worked out from the molar mass of the structure shown. Active and inactive are the calls of the source. The rule behind the calls is not given here.

Key:
Gyrodactylus kobayashii [1] = assay: Antiparasitic activity against Gyrodactylus kobayashii infected in gold fish measured upto 48 hrs by stereomicroscope analysis; type: functional, organism-based
[2] = Acute toxicity in gold fish infected with Gyrodactylus kobayashii measure upto 48 hrs by microscopic analysis; details: carassius auratus
Gyrodactylus kobayashii [3] = assay: Binding affinity to Gyrodactylus kobayashii Myosin expressed in Escherichia coli BL21 assessed as thermal stabilization at 1 mM at 40 to 50 degreeC by CETSA analysis
[4] = Inhibition of wild type Gyrodactylus kobayashii Myosin ATPase activity incubated for 30 mins
[5] = Inhibition of Gyrodactylus kobayashii Myosin N439A mutant ATPase activity incubated for 30 min
[6] = Therapeutic index, ratio of LC50 for acute toxicity in gold fish infected with Gyrodactylus kobayashii to EC50 for antiparasitic activity against Gyrodactylus kobayashii infected in gold fish; details: goldfish
SARS-CoV-2 = assay: Antiviral activity against SARS-CoV-2 infected in African green monkey Vero cells assessed as inhibition of viral replication pretreated with compound for 2 hr followed by viral infection and measured after 48 hrs by indirect immunofluorescence assay; type: functional, organism-based; details: Severe acute respiratory syndrome coronavirus 2, Vero
[7] = Gyrodactylus kobayashii, 48 h, read-out: EC50

With COc1cc(C2Oc3ccc(C4Oc5cc(O)cc(O)c5C(=O)C4O)cc3OC2CO)ccc1O (configuration not stated) the EC50 (Gyrodactylus kobayashii [1]; [7]) was 7.53 µg/mL (≈ 15.6 µM) and the LC50 at 48 h [2] was 26.2 µg/mL (≈ 54.4 µM).
O=c1cc(-c2ccccc2)oc2c([C@@H]3OC[C@H](O)[C@H](O)[C@H]3O)c(O)c([C@@H]3O[C@H](CO)[C@@H](O)[C@H](O)[C@H]3O)c(O)c12 gave an EC50 (Gyrodactylus kobayashii [1]; [7]) of 7.58 µg/mL (≈ 13.8 µM).
C[C@@H]1O[C@@H](O[C@H]2C(=O)c3c(O)cc(O)cc3O[C@H]2c2ccc(O)c(O)c2)[C@H](O)[C@H](O)[C@H]1O showed an EC50 (Gyrodactylus kobayashii [1]; [7]) of 15.9 µg/mL (≈ 35.3 µM), an LC50 at 48 h [2] of 26.5 µg/mL (≈ 58.7 µM) and an LC50 ([2]; 48 h) of 24.975 mg/L (≈ 55.5 µM).
Compound C[C@@H]1O[C@@H](Oc2cc(O)c3c(=O)c(O)c(-c4ccc(O)cc4)oc3c2O)[C@H](O)[C@H](O[C@@H]2O[C@H](CO)[C@@H](O)[C@H](O)[C@H]2O)[C@H]1O has an EC50 (Gyrodactylus kobayashii [1]; [7]) of 11.3 µg/mL (≈ 18.5 µM) and an LC50 at 48 h [2] of 13.2 µg/mL (≈ 21.7 µM).
CO[C@H]1C[C@H](O[C@H]2CC[C@]3(C)[C@H]4CC[C@]5(C)[C@@H](C6=CC(=O)OC6)CC[C@]5(O)[C@@H]4CC[C@]3(O)C2)O[C@H](C)[C@H]1O[C@@H]1O[C@H](CO)[C@@H](O)[C@H](O)[C@H]1O showed an EC50 (Gyrodactylus kobayashii [1]; [7]) of 3.89 µg/mL (≈ 5.59 µM) and an LC50 at 48 h [2] of 4.12 µg/mL (≈ 5.92 µM).
Cc1c([C@H](C)[C@@H]2NC[C@@H](C)C[C@H]2O)ccc2c1C[C@H]1[C@H]2CC=C2C[C@@H](O[C@@H]3O[C@H](CO)[C@@H](O)[C@H](O)[C@H]3O)CC[C@@]21C showed an EC50 (Gyrodactylus kobayashii [1]; [7]) of 4.58 µg/mL (≈ 8.02 µM) and an LC50 at 48 h [2] of 15.2 µg/mL (≈ 26.7 µM).
With COC(=O)[C@H]1O[C@@H](Oc2cc3oc(-c4ccc(O)cc4)cc(=O)c3c(O)c2O)[C@H](O)[C@@H](O)[C@@H]1O the EC50 (Gyrodactylus kobayashii [1]; [7]) was 7.23 µg/mL (≈ 15.2 µM) and the LC50 at 48 h [2] was 11.4 µg/mL (≈ 23.9 µM).
C[C@@H]1O[C@@H](Oc2cc(O)c3c(=O)c(O)c(-c4ccc(O)cc4)oc3c2)[C@H](O)[C@H](O)[C@H]1O [ALPHA-RHAMNOISOROBIN] showed an EC50 (Gyrodactylus kobayashii [1]; [7]) of 8.27 µg/mL (≈ 19.1 µM) and an LC50 at 48 h [2] of 9.3 µg/mL (≈ 21.5 µM).
Work on CCCCC[C@H](O)/C=C/[C@H]1[C@H](O)CC(=O)[C@@H]1CCCCCCC(=O)O [ALPROSTADIL] yielded an EC50 (Gyrodactylus kobayashii [1]; [7]) of 16.2 µg/mL (≈ 45.8 µM) and an LC50 at 48 h [2] of 30.5 µg/mL (≈ 86 µM).
For COc1cc(C[C@H]2C(=O)OC[C@@H]2Cc2ccc(OC)c(OC)c2)ccc1O [ARCTIGENIN], the Activity (Gyrodactylus kobayashii [3]) was “Active”, the IC50 [4] was 677 µM and the IC50 [5] was 3.21 mM. The EC50 (Gyrodactylus kobayashii [1]; [7]) was 1.85 µg/mL (≈ 4.97 µM) and the LC50 at 48 h [2] was 11.6 µg/mL (≈ 31.2 µM).
O=C(/C=C/c1ccccc1)c1ccccc1 [CHALCONE] gave an IC50 [4] of 440 µM, an EC50 (Gyrodactylus kobayashii [1]; [7]) of 1.08 µg/mL (≈ 5.21 µM) and an LC50 at 48 h [2] of 7.66 µg/mL (≈ 36.8 µM).
With O=C1C=CC(=O)c2c(O)cccc21 [JUGLONE] the EC50 (Gyrodactylus kobayashii [1]; [7]) was 0.72 µg/mL (≈ 4.13 µM).
Compound O=C1C=C(O)C(=O)c2ccccc21 [LAWSONE] has an EC50 (Gyrodactylus kobayashii [1]; [7]) of 3.53 µg/mL (≈ 20.3 µM), an LC50 at 48 h [2] of 10.7 µg/mL (≈ 61.4 µM) and a selectivity ratio [6] of 3.03.
O=C1c2ccccc2C(=O)c2c1cc(O[C@@H]1O[C@H](CO[C@@H]3OC[C@@H](O)[C@H](O)[C@H]3O)[C@@H](O)[C@H](O)[C@H]1O)c(CO)c2O [LUCIDIN PRIMEVOROSIDE] gave an EC50 (Gyrodactylus kobayashii [1]; [7]) of 4.15 µg/mL (≈ 7.35 µM) and an LC50 at 48 h [2] of 8.24 µg/mL (≈ 14.6 µM).
CC1=CC(=O)c2ccccc2C1=O [MENADIONE] showed an EC50 (Gyrodactylus kobayashii [1]; [7]) of 0.341 µg/mL (≈ 1.98 µM), an LC50 at 48 h [2] of 1.19 µg/mL (≈ 6.93 µM) and a selectivity ratio [6] of 3.5.
In the case of O=C1C=CC(=O)c2ccccc21 [NAPHTHOQUINONE], the EC50 (Gyrodactylus kobayashii [1]; [7]) is reported as 0.047 µg/mL (≈ 0.297 µM), the LC50 at 48 h [2] is reported as 0.23 µg/mL (≈ 1.45 µM) and the selectivity ratio [6] is reported as 4.89.
With COc1ccc(CCC(=O)c2c(O)cc(O[C@@H]3O[C@H](CO)[C@@H](O)[C@H](O)[C@H]3O[C@@H]3O[C@@H](C)[C@H](O)[C@@H](O)[C@H]3O)cc2O)cc1O [NEOHESPERIDIN DIHYDROCHALCONE] the EC50 (Gyrodactylus kobayashii [1]; [7]) was 13.4 µg/mL (≈ 21.9 µM) and the LC50 at 48 h [2] was 25.5 µg/mL (≈ 41.6 µM).
In the case of C#CCC(Cc1cnc2nc(N)nc(N)c2n1)c1ccc(C(=O)N[C@@H](CCC(=O)O)C(=O)O)cc1 (some centres not stated) [PRALATREXATE], the EC50 (SARS-CoV-2) is reported as 8 nM.
In the case of NC(=O)[C@@H]1CCCN1C(=O)[C@H](Cc1cnc[nH]1)NC(=O)[C@@H]1CCC(=O)N1 [PROTIRELIN], the EC50 (Gyrodactylus kobayashii [1]; [7]) is reported as 9.52 µg/mL (≈ 26.3 µM) and the LC50 at 48 h [2] is reported as 16.3 µg/mL (≈ 44.9 µM).
For O=C(O)[C@H]1O[C@@H](Oc2cc3oc(-c4ccc(O)cc4)cc(=O)c3c(O)c2O)[C@H](O)[C@@H](O)[C@@H]1O [SCUTELLARIN], the EC50 (Gyrodactylus kobayashii [1]; [7]) was 7.15 µg/mL (≈ 15.5 µM) and the LC50 at 48 h [2] was 13.3 µg/mL (≈ 28.7 µM).
CC(C)=CC[C@@H](O)C1=CC(=O)c2c(O)ccc(O)c2C1=O [SHIKONIN] showed an IC50 [4] of 140 µM, an EC50 (Gyrodactylus kobayashii [1]) of 0.37 µg/mL (≈ 1.28 µM) and an EC50 (Gyrodactylus kobayashii [1]; [7]) of 0.371 µg/mL (≈ 1.29 µM). For the same compound, the LC50 at 48 h [2] was 1.29 µg/mL (≈ 4.47 µM) and the selectivity ratio [6] was 3.49.
O=C1OC[C@H]2O[C@@H](Oc3cc(O)c(C(=O)CCc4ccccc4)c(O)c3)[C@H](O)[C@@H](O)[C@@H]2OC(=O)c2cc(O)c(O)c(O)c2-c2c1cc(O)c(O)c2O [THONNINGIANIN B] gave an EC50 (Gyrodactylus kobayashii [1]; [7]) of 6.31 µg/mL (≈ 8.73 µM) and an LC50 at 48 h [2] of 21.5 µg/mL (≈ 29.8 µM).
